For assay [1], the system named is Rattus norvegicus. Description: Antiinflammatory activity in rat assessed as inhibition of carrageenan induced paw edema at 10 mg/kg after 4 hrs relative to control. The format is functional.
Assay [2] deals with T1, Prostaglandin G/H synthase 1 (Mus musculus, UniProt P22437).
T1 sequence (P22437 whole entry): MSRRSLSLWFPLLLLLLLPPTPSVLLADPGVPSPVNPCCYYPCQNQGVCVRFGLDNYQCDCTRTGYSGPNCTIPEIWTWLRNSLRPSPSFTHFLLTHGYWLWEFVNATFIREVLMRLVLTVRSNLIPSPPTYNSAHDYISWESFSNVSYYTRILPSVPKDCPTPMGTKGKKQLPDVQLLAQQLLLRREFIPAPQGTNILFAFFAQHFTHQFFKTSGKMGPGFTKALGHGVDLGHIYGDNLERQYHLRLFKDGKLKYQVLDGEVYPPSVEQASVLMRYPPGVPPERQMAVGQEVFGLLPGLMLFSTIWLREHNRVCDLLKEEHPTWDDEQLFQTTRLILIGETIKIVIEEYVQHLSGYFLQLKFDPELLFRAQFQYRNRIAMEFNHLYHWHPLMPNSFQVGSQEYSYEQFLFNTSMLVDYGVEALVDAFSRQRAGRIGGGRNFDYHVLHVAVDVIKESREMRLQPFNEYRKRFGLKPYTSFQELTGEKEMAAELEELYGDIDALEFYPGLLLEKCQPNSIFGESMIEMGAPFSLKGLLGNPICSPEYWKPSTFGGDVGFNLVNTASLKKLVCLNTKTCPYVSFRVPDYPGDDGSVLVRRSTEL
The assay can be described thus: Inhibition of COX1 in mouse peritoneal macrophages.

The subject of assay [3] is Rattus norvegicus. The assay can be described thus: Antiinflammatory activity in rat assessed as inhibition of carrageenan induced paw edema at 10 mg/kg after 2 hrs relative to control. The format is functional.
For a further assay, the species on record is Mus musculus. The assay can be described thus: Selectivity index, ratio of IC50 for COX1 to IC50 for COX2 in mouse peritoneal macrophages.
The target in assay [4] is T2, Prostaglandin G/H synthase 2 (Mus musculus, UniProt Q05769).
T2 sequence (Q05769 whole entry): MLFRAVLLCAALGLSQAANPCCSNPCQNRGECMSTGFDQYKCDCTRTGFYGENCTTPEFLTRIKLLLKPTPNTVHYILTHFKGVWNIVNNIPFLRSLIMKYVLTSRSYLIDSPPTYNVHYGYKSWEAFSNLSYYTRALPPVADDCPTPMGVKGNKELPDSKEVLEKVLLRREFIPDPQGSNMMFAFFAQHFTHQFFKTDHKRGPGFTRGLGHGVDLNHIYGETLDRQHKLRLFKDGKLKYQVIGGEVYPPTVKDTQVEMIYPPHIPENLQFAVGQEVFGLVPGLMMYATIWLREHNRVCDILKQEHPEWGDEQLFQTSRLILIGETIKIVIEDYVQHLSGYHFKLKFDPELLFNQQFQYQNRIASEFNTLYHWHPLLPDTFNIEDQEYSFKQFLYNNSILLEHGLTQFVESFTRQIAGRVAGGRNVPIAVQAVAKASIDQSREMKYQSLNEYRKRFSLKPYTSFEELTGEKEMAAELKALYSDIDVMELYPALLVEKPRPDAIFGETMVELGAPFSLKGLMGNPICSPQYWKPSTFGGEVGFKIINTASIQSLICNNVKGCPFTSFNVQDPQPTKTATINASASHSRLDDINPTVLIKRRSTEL
The assay can be described thus: Inhibition of COX2 in mouse peritoneal macrophages.

Assay [5] relates to Rattus norvegicus. Description: Antiinflammatory activity in rat assessed as inhibition of carrageenan induced paw edema at 10 mg/kg after 3 hrs relative to control. The class given is functional.
Assay [6] deals with Rattus norvegicus. The assay can be described thus: Antiinflammatory activity in rat assessed as inhibition of carrageenan induced paw edema at 10 mg/kg after 1 hr relative to control. The class given is functional.
Assay [7] deals with Prostaglandin G/H synthase 1 (Mus musculus, UniProt P22437). The assay can be described thus: Inhibition of calcimycin-induced COX1 activity.

The text below walks through data of ChEMBL document CHEMBL1153980, “Synthesis and anti-inflammatory activity of the major metabolites of imrecoxib” (Bioorg Med Chem Lett, 2009).

Regarding `CCCN1CC(c2ccc(S(C)(=O)=O)cc2)=C(c2ccc(CO)cc2)C1=O`, the inhibition in vivo at 10 mg/kg in the assay with Rattus norvegicus [1] is 63.9%; in the assay with Rattus norvegicus [3], 46%; with Rattus norvegicus [5], 56.1%; in the assay with Rattus norvegicus [6], 26.5%. In addition, the IC50 is 87 nM in assay [2] and 14 nM in assay [4]. Further, in the assay filed under Mus musculus, the Ratio IC50 was 6.2.

With `Cc1ccc(-c2cc(C(F)(F)F)nn2-c2ccc(S(N)(=O)=O)cc2)cc1` [CELECOXIB], the inhibition in vivo at 10 mg/kg in the assay on Rattus norvegicus [1] came out at 49.3%; with Rattus norvegicus [3], 36.6%; in the assay with Rattus norvegicus [5], 44.7%; in the assay on Rattus norvegicus [6], 23.5%.

Consider `CCCN1CC(c2ccc(S(C)(=O)=O)cc2)=C(c2ccc(C(=O)O)cc2)C1=O`, for which the inhibition in vivo at 10 mg/kg came out at 65.9% in the assay with Rattus norvegicus [1], 51.9% in the assay with Rattus norvegicus [3], 55.5% in the assay with Rattus norvegicus [5] and 45.4% with Rattus norvegicus [6]. Further, the Ratio IC50 in the assay listed under Mus musculus is 6.8. Also, the IC50 in assay [4] turned out to be 410 nM; in assay [7], 2780 nM.

As for `CCCN1CC(c2ccc(S(C)(=O)=O)cc2)=C(c2ccc(C)cc2)C1=O` [IMRECOXIB], the inhibition in vivo at 10 mg/kg in the assay on Rattus norvegicus [1] amounted to 50.4%; with Rattus norvegicus [3], 39.5%; in the assay with Rattus norvegicus [5] it was 50.4%; in the assay on Rattus norvegicus [6] it was 31.3%. For the same compound, the figures for the IC50 in assay [2] and in assay [4] were 115 nM and 18 nM, respectively. In addition, in the assay listed under Mus musculus, the Ratio IC50 was determined as 6.4.
